From ChEMBL document CHEMBL1201862, “PubChem BioAssay data set” (2004)
Calls of active or inactive are those of the source.

Experiments:
[1] = miR-122 activators in hepatoma reporter cells, dose response, cell-based, Huh7 psiCHECK-miR122, Renilla luciferase, cherry-picked (AID 651956); assay type: functional;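 further: huh7 hepatoma cells stably carrying a psiCHECK-2 miR-122 sensor plasmid; renilla luciferase signal reporting endogenous miR-122 activity after 48 h compound exposure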
[2] = HEK293T cytotoxicity, dose response, cytotoxicity control for miR-122 modulator project, cell-based, activator set, cherry-pick (AID 720690); assay type: functional;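 further: HEK293T human cells scored for general mammalian cytotoxicity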
[3] = T. cruzi growth inhibition in host cells, dose response, cell-based, plate reader, dry powder, set 2 (AID 652275); assay type: functional
[4] = HEK293T cytotoxicity, dose response, cytotoxicity control for miR-122 modulator project, cell-based, inhibitor set, cherry-pick, set 2 (AID 720697); assay type: functional
[5] = T. cruzi intracellular amastigote growth inhibition, dose response, imaging, CA-I/72 strain, bovine embryo skeletal muscle, dry powder (AID 651885); assay type: functional, cell-based
[6] = Counterscreen for […] of the human trace amine associated receptor 1 (TAAR1): Fluorescence-based cell-based high throughput dose response assay to identify nonselective Ga16 agonists.; assay type: functional
[7] = biological target: T1, Trace amine-associated receptor 1 (Homo sapiens, UniProt Q96RJ0); assay: Fluorescence-based cell-based high throughput dose response assay to identify antagonists of the human trace amine associated receptor 1 (TAAR1).; assay type: functional
T1 sequence (Q96RJ0 whole entry): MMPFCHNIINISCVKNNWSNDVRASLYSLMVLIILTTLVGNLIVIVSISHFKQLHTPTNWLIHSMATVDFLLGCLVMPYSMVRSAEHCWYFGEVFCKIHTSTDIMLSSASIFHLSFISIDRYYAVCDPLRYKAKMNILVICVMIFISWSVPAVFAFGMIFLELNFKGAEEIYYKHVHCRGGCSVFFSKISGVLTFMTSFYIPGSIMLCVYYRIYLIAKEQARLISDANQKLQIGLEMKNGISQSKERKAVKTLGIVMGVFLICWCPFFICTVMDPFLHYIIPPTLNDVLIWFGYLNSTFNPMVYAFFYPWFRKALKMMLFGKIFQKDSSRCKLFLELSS

[8] = Counterscreen for antagonists of the human trace amine associated receptor 1 (hTAAR1): Fluorescence-based cell-based high throughput dose response assay to identify nonselective Ga16 antagonists.; assay type: functional
[9] = biological target: T1, Trace amine-associated receptor 1; assay: Counterscreen for antagonists of the human trace amine associated receptor 1 (hTAAR1): Fluorescence-based cell-based high throughput dose response assay to identify TAAR1 Agonists.; assay type: functional
[10] = biological target: T2, Replicative DNA helicase DnaB (Mycobacterium tuberculosis, UniProt P9WMR3); assay: DnaB intein splicing inhibitors, dose response, biochemical, cell-free fluorescence (AID 449749); assay type: functional
T2 sequence (P9WMR3 whole entry): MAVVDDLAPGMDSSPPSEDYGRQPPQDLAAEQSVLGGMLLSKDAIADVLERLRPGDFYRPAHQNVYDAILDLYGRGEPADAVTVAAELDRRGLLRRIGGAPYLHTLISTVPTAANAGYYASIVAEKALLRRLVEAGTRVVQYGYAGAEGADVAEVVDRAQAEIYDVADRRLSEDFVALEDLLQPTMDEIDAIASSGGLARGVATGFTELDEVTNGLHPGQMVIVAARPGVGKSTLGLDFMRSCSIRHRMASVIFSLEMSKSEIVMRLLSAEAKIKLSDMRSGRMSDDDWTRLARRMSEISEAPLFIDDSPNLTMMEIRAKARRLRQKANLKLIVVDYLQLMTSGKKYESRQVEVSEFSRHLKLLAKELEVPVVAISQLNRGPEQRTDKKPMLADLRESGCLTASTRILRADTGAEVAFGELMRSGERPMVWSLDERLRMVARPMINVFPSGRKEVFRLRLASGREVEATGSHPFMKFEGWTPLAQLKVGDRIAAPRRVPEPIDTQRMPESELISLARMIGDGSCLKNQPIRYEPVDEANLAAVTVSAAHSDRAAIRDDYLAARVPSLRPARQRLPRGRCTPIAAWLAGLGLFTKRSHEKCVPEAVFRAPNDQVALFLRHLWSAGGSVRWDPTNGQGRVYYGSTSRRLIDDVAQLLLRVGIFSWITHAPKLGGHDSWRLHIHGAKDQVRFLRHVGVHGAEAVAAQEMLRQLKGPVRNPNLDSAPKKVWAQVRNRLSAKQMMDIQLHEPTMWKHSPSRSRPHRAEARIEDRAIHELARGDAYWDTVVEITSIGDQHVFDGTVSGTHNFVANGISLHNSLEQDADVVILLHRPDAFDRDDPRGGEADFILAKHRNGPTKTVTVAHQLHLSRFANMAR

[11] = biological target: T3, Apoptotic protease-activating factor 1 (Homo sapiens, UniProt O14727); assay type: functional
T3 sequence (O14727 whole entry): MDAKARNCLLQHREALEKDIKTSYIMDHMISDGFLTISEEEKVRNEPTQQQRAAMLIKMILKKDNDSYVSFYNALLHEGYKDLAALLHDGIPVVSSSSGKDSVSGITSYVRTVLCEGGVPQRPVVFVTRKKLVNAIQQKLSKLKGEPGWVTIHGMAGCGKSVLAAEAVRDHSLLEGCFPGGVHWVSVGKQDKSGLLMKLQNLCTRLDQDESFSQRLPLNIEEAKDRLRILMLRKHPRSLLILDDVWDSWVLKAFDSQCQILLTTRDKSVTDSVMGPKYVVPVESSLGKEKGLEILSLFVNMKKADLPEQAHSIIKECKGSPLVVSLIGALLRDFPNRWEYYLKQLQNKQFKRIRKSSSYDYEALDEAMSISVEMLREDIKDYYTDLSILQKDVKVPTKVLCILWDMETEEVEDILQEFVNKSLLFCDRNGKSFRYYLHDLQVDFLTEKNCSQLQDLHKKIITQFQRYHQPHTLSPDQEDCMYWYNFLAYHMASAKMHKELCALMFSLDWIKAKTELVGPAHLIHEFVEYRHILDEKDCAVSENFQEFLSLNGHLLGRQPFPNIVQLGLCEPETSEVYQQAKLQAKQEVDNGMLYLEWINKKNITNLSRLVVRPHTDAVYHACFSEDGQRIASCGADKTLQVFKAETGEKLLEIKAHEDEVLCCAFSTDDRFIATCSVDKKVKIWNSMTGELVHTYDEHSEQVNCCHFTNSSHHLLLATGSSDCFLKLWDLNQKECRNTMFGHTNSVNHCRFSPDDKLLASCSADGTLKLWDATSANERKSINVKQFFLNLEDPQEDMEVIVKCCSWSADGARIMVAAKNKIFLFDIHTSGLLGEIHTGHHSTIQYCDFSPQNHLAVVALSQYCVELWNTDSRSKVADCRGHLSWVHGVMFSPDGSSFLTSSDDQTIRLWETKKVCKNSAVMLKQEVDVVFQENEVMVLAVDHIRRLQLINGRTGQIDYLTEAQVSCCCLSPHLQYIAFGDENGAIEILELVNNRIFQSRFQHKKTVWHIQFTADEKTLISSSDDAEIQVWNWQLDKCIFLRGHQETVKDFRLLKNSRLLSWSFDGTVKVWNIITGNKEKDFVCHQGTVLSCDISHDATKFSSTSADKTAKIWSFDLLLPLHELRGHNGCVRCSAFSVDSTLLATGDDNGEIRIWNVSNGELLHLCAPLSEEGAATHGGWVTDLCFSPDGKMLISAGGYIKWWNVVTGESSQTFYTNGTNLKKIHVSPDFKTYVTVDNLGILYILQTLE

Protein RecA = biological target: T4, Protein RecA (Mycobacterium tuberculosis, UniProt P9WHJ3); assay: Fluorescence Cell-Free Homogeneous Dose Retest to Identify Inhibitors of RecA-Intein Splicing Activity. [Related pubchem assays (depositor defined):AID2097, AID2223, AID489010, AID492950]; assay type: functional
T4 sequence (P9WHJ3 whole entry): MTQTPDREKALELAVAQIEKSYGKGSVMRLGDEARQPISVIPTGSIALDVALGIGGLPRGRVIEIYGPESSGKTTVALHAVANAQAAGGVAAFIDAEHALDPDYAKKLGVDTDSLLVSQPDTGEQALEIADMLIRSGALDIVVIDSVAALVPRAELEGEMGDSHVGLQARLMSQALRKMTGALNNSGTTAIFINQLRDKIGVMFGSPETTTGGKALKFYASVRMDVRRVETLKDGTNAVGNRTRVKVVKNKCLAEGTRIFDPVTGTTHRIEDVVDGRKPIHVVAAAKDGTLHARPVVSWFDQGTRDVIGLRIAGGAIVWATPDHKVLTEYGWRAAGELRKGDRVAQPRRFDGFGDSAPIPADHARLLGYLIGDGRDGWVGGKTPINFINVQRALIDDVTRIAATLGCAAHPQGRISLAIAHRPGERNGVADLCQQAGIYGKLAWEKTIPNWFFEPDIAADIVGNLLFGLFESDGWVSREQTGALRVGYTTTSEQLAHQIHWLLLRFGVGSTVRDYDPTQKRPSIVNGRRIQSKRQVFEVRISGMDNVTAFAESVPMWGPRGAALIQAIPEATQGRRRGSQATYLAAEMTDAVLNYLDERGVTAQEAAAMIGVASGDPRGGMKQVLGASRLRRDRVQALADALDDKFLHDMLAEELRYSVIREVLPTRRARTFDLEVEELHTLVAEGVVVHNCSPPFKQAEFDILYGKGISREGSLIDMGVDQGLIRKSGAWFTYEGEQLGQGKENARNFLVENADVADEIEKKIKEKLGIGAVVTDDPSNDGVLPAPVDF

[12] = biological target: Mitochondrial peptide methionine sulfoxide reductase (Bos taurus, UniProt P54149); assay type: functional;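 further: absorbance read-out, biochemical high-throughput dose-response screen for MsrA inhibitors, confirmatory; recombinant bovine MsrA coupled to E. coli TrxB with NADPH and selenocystamine; potency is for inhibitors of MsrA activity on DMSO substrate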
[13] = biological target: Tyrosyl-DNA phosphodiesterase 2 (Homo sapiens, UniProt O95551); assay: human TDP2 enzyme inhibitors, dose response, biochemical, epi absorbance, IC50 (AID 743297)
Chain of Tyrosyl-DNA phosphodiesterase 2 (O95551 whole entry): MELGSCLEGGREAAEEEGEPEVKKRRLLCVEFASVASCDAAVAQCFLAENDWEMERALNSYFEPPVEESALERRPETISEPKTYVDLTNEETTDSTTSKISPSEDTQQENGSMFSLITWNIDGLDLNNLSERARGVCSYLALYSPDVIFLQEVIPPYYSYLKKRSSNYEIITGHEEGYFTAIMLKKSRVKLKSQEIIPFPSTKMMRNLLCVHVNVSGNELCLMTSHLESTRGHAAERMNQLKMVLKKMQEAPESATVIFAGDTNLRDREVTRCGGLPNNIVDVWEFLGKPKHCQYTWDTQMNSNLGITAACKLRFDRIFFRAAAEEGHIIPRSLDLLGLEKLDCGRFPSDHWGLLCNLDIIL

Chain of Mitochondrial peptide methionine sulfoxide reductase (P54149 whole entry): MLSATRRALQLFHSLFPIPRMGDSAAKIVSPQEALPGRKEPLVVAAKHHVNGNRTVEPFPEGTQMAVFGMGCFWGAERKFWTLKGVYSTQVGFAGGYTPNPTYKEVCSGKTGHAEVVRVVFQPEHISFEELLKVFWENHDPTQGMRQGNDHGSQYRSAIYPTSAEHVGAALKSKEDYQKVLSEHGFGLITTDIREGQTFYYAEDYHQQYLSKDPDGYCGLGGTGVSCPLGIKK

C[C@@H]1CN([C@H](C)CO)S(=O)(=O)c2ccc(C#Cc3ccncc3)cc2O[C@@H]1CN(C)C(=O)Nc1ccc2c(c1)OCO2
AC50 [1]: 4.77 µM (active) | AC50 [2]: 29.8 µM (active)

CC(c1ccc(Cl)cc1)N1CC2(C1)CN(C(C)C)C(=O)c1cccc(NC(=O)c3ccncc3)c1O2 (centres undefined)
AC50 [3]: 556 nM (active)

CNC(=O)C[C@H]1CC[C@H]2[C@@H](COc3ccc(NC(=O)C4CC4)cc3C(=O)N2C)O1
AC50 [4]: 2.59 µM (active)

CC(C)N1C[C@H](C)[C@@H](CN(C)C(=O)OC(C)(C)C)Oc2c(C(=O)O)cccc2C1=O
IC50 [5]: > 20 µM (inactive)

CCNC(=S)N/N=C/c1cc(C)n(-c2ccc(Cl)cc2)c1C
EC50 [6]: > 29.9 µM (inactive) | IC50 [7]: 1.13 µM (active) | IC50 [8]: > 29.9 µM (inactive) | EC50 [9]: 13.6 µM (inactive)

O=C(O)c1ccc(NC2=C(n3nnc4ccccc43)C(=O)c3ccccc3C2=O)cc1
AC50 [10]: 4.36 µM (active) | IC50 [11]: 7.8 µM (active) | EC50 (Protein RecA): 3 µM (active) | IC50 [12]: 11.6 µM (inactive) | IC50 [13]: 40.1 µM (inactive)
